{"source": "paper PMC12281424", "about": "“A Rac-specific competitive inhibitor of guanine nucleotide binding reduces metastasis in triple-negative breast cancer” (Cell Reports Medicine, 2025)", "key": {"Abl(m)": {"target": "Abl(m) (Mus musculus, UniProt P00520)", "sequence (P00520 27-1123 limits assumed)": "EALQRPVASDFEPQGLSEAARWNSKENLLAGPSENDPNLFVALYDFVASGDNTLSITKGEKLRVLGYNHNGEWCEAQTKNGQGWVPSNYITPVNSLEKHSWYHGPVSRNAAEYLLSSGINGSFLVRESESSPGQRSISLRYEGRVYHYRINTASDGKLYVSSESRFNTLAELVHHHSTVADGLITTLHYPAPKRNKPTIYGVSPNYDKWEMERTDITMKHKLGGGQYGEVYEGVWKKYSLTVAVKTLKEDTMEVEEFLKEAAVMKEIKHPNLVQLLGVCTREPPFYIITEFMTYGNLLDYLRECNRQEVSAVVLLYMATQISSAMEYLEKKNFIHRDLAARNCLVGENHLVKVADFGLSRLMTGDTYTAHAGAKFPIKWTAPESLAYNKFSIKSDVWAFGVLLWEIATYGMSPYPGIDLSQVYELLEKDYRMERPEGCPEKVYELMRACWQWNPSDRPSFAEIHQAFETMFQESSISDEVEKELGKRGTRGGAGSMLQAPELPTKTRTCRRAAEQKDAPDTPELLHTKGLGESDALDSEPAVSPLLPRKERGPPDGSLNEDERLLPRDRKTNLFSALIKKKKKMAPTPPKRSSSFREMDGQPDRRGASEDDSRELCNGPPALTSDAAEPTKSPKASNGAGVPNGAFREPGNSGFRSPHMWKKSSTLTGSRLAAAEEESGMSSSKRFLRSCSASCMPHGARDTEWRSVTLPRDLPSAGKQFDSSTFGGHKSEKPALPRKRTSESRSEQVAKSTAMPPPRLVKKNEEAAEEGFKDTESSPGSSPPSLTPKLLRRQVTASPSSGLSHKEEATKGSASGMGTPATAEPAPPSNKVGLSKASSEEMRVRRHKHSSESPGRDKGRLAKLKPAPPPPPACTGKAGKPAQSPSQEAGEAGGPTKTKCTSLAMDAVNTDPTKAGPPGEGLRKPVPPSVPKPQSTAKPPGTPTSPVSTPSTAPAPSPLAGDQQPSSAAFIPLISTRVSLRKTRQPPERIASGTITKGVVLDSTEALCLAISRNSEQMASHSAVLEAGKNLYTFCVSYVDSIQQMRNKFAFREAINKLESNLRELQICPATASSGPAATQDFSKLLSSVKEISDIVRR", "experiment": "Kinase Profiler", "type": "biochemical", "method": "(§1) The kinase profiler was performed by the company Eurofins (Discovery, Panlab and Cerep)."}, "p70S6K(h)": {"target": "p70S6K(h) (Homo sapiens, UniProt P23443)", "sequence (P23443 whole entry)": "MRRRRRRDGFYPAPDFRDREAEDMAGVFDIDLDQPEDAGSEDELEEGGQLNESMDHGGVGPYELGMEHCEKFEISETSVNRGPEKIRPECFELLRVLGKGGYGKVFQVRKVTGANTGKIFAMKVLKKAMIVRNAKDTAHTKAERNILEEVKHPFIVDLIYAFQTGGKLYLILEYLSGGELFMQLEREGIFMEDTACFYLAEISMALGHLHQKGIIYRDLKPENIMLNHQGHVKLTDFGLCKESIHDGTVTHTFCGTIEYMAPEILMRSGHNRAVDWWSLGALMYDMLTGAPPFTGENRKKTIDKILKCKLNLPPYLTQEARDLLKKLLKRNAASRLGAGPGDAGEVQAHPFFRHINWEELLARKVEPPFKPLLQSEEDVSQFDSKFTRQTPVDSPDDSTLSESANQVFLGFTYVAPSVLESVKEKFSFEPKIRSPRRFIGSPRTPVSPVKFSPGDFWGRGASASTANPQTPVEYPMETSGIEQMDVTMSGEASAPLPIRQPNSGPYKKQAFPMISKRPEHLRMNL", "experiment": "Kinase Profiler", "type": "biochemical", "method": "(§2) Blood cell counts, kinase profiler, safety screen, bacterial cytotoxicity, Ames, micronucleus assays were performed by the company Eurofins (France). The kinase profiler was performed by the company Eurofins (Discovery, Panlab and Cerep)."}, "PKA(h)": {"target": "PKA(h) (Homo sapiens, UniProt P17612)", "experiment": "Kinase Profiler", "type": "biochemical", "method": "as §2"}, "PhKγ1(h)": {"target": "PhKγ1(h) (Homo sapiens, UniProt Q16816)", "sequence (Q16816 whole entry)": "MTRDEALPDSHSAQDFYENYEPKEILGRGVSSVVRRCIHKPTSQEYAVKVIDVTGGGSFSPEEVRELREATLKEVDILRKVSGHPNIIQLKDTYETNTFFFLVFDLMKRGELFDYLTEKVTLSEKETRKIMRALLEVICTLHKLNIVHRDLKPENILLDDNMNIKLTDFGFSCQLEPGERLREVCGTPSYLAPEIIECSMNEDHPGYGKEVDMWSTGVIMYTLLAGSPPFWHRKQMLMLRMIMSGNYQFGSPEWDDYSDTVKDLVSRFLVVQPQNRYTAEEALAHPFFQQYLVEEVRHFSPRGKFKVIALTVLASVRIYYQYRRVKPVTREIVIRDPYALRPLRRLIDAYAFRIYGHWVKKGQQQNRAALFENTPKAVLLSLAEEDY", "experiment": "Kinase Profiler", "type": "biochemical", "method": "as §2"}, "PPARγ": {"target": "PPARγ (Homo sapiens, UniProt P37231)", "experiment": "Safety screen", "type": "binding", "method": "as §2"}, "Lyn(h)": {"target": "Lyn(h) (Homo sapiens, UniProt P07948)", "experiment": "Kinase Profiler", "type": "biochemical", "method": "as §1"}, "[1]": {"experiment": "In vivo pharmacokinetics and tissue distribution", "set-up": "species or system mouse", "settings": "25 mg/kg i.p.", "protocol": "A41 was administrated intraperitoneally (25 mg/kg, aqueous solution of A41 in 5% DMSO, 50% PEG) in 2 months old C57Bl/6 after 4 h of fasting. After 5, 30, 60, 120 and 360 minutes following injection, mice (n = 3 per kinetic time) were sacrificed and tissues (blood, heart, lung, liver, kidney and brain) were collected. Control mice (n = 5) were used to get blank tissues for mass spectrometry analyses. Blood was collected by cardiac puncture into tubes containing 10% EDTA. Immediately after blood collection, plasma was separated by centrifugation for 5 min at 4 °C (2,000 × g). Solid tissues were rapidly excised and snap frozen in liquid nitrogen before to be disrupted and homogenized in PBS (1/10; wt/vol) using TissueLyser II (Quiagen). A41 concentrations were determined in mouse plasma and tissues by liquid chromatography-tandem mass spectrometry (LC-MS/MS). All solvents were LC-MS grade and purchased from Biosolve (Valkenswaard, Netherlands). A41 10× standard solutions were prepared and serially diluted in acetonitrile to obtain 8 standard solutions ranging 10-20,000 nmol/L. A41 10X standard solutions (5 μL or 20 μL) were added to blank plasma (45 μL) or blank tissue homogenates (180 μL), respectively, to get final concentrations ranging 1-2,000 nmol/L. Acetonitrile (5 μL or 20 μL) was added to plasma (45 μL) or tissue samples (180 μL). Tissue homogenates (standards and samples) were then centrifugated for 5 min at 5,000 × g for 5 min at 10 °C and supernatants (100 μL) were collected. Proteins were precipitated by the addition of 150 μL or 300 μL of acetonitrile containing labeled D3-A41 as internal standard (200 nmol/L) in all plasma (50 μL) and tissue supernatants (100 μL), respectively. After centrifugation (17,000 × g, 10 min, 10 °C), supernatants were collected and dried under a gentle stream of nitrogen. Dried samples were finally reconstituted with 25% acetonitrile containing 0.1% formic acid (100 μL), and injected into the LC-MS/MS system. Analyses were performed on a Xevo® TQD mass spectrometer with an electrospray (ESI) interface and an Acquity H-Class® UPLC™ device (Waters Corporation, Milford, MA, USA). Samples (10 μL) were injected onto a BEH C18 column (1.7 μm; 2.1 × 50 mm, Waters Corporation) held at 60 °C, and compounds were separated with a linear gradient of mobile phase B (acetonitrile, 0.1% formic acid) in mobile phase A (water, 0.1% formic acid) at a flow rate of 500 μL/min. […] A41 and its internal standard d3-A41 were then detected by the mass spectrometer with the ESI interface operating in the positive ion mode (capillary voltage, 3 kV; desolvatation gas (N2) flow and temperature, 900 L/h and 450 °C; source temperature, 120 °C). The multiple reaction monitoring mode was applied for MS/MS detection at the following mass-to-charge (m/z) ratio transitions: 487.1 → 153.0 and 490.2 → 156.0 for A41 and d3-A41, respectively. Cone voltage and collision energy were set at 35 V and 20 eV, respectively. Data acquisition and processing were achieved using MassLynx® and TargetLynx® softwares (version 4.1, Waters Corporation). Chromatographic peak area ratios between A41 and its internal standard constituted the detector responses. Standard solutions were used to plot calibration curves for quantification and dilution factors related to biological matrix preparations were included in calculation. The linearity was expressed by the mean r^2 which was greater than 0.995 for all matrices (linear regression, 1/x weighting, origin excluded). AUC0-6h was calculated as follow: AUC0−6h=∫06hC0e^−Ktdt=C0/K Where K = constant of elimination, and […].\nSupplementary Fig. 7: A41 pharmacokinetics. (a) Molecule distribution in plasma and indicatedorgans afterintraperitonealinjectionof A41 (25 mg/kg) in mice(N=3 mice/kinetictimepoint). (b) Pharmacokinetic parametersof A41 calculated in mice after a singleintraperitonealinjection(25mg/kg). AUC = Area Under the Concentration-time curve."}, "SAPK2a(T106M)(h)": {"target": "SAPK2a(T106M)(h) (Homo sapiens, UniProt Q16539, T106M)", "experiment": "Kinase Profiler", "type": "biochemical", "method": "as §1"}, "DAPK1(h)": {"target": "DAPK1(h) (Homo sapiens, UniProt P53355)", "experiment": "Kinase Profiler", "type": "biochemical", "method": "as §1"}, "TGFBR1(h)": {"target": "TGFBR1(h) (Homo sapiens, UniProt P36897)", "sequence (P36897 34-503)": "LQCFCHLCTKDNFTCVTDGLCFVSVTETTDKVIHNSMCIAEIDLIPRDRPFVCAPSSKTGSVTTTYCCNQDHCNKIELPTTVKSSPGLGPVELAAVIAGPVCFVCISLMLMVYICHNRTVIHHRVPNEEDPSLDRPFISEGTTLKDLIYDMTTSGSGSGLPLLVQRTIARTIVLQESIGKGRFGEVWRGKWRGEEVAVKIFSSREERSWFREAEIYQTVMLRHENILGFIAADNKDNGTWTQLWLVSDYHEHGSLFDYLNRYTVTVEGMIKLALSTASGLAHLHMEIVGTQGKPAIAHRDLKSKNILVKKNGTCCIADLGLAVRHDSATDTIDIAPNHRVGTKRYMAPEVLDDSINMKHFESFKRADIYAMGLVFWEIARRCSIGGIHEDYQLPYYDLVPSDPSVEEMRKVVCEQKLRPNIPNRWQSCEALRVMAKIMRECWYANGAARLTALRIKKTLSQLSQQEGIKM", "experiment": "Kinase Profiler", "type": "biochemical", "method": "as §2"}, "MAK(h)": {"target": "MAK(h) (Homo sapiens, UniProt P20794)", "experiment": "Kinase Profiler", "type": "biochemical", "method": "as §1"}, "IRAK4(h)": {"target": "IRAK4(h) (Homo sapiens, UniProt Q9NWZ3)", "experiment": "Kinase Profiler", "type": "biochemical", "method": "as §1"}, "B-Raf(h)": {"target": "B-Raf(h) (Homo sapiens, UniProt P15056)", "sequence (P15056 whole entry)": "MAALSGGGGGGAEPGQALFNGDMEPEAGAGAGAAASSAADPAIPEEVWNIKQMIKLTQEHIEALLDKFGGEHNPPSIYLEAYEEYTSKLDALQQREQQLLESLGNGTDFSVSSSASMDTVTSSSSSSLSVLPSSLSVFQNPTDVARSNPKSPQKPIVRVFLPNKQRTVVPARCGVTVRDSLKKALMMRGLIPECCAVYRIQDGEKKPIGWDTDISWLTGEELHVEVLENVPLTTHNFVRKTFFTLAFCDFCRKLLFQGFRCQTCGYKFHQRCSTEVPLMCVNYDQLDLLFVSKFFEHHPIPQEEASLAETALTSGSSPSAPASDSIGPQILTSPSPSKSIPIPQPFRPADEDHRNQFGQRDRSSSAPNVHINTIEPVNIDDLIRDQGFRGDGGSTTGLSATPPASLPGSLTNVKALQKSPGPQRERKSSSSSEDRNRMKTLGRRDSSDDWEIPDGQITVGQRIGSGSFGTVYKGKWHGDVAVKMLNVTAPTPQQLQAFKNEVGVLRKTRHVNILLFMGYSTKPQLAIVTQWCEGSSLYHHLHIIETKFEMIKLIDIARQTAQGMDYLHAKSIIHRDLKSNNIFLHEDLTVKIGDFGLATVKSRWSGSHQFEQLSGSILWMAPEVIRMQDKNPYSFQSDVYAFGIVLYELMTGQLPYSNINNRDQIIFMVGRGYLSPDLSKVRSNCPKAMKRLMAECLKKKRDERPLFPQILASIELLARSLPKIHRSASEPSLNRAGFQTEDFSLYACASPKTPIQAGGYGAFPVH", "experiment": "Kinase Profiler", "type": "biochemical", "method": "as §2"}, "ROCK-II(r)": {"target": "ROCK-II(r) (Rattus norvegicus, UniProt Q62868)", "experiment": "Kinase Profiler", "type": "biochemical", "method": "as §2"}, "CLK3(h)": {"target": "CLK3(h) (Homo sapiens, UniProt P49761)", "experiment": "Kinase Profiler", "type": "biochemical", "method": "as §1"}, "Lyn(m)": {"target": "Lyn(m) (Mus musculus, UniProt P25911)", "sequence (P25911 2-512 limits assumed)": "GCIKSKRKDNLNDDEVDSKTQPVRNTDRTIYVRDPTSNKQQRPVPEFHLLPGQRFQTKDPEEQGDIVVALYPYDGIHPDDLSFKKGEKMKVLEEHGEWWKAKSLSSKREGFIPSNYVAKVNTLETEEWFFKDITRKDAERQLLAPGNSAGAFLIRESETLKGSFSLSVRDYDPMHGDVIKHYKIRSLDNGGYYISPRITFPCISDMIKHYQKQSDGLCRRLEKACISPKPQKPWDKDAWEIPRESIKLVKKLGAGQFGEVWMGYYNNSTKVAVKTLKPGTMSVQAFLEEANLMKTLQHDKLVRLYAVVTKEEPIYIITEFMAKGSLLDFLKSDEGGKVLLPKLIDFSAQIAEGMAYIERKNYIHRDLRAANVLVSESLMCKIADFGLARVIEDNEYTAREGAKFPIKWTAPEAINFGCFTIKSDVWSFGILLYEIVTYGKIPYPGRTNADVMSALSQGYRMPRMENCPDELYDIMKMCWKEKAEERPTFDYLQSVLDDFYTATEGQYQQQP", "experiment": "Kinase Profiler", "type": "biochemical", "method": "as §1"}, "Cyclooxygenase COX-2": {"target": "Cyclooxygenase COX-2 (Homo sapiens, UniProt P35354)", "sequence (P35354 18-604)": "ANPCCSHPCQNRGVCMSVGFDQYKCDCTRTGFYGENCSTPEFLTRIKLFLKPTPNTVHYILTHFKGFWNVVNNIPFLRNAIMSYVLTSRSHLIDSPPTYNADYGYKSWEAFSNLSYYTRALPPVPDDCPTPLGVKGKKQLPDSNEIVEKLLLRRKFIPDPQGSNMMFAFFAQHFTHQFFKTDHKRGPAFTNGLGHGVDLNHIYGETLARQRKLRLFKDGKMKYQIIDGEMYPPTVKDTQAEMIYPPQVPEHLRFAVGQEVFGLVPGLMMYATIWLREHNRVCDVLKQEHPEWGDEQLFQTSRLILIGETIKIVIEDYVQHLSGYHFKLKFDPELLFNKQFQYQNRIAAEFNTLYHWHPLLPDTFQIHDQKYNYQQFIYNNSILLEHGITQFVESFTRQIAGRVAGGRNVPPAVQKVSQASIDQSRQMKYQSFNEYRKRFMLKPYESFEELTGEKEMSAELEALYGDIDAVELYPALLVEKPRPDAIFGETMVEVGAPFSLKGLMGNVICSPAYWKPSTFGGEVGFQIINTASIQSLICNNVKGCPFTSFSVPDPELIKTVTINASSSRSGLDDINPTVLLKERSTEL", "experiment": "Safety screen", "type": "biochemical", "method": "as §2"}, "Muscarinic M4": {"target": "Muscarinic M4 (Homo sapiens, UniProt P08173)", "sequence (P08173 whole entry)": "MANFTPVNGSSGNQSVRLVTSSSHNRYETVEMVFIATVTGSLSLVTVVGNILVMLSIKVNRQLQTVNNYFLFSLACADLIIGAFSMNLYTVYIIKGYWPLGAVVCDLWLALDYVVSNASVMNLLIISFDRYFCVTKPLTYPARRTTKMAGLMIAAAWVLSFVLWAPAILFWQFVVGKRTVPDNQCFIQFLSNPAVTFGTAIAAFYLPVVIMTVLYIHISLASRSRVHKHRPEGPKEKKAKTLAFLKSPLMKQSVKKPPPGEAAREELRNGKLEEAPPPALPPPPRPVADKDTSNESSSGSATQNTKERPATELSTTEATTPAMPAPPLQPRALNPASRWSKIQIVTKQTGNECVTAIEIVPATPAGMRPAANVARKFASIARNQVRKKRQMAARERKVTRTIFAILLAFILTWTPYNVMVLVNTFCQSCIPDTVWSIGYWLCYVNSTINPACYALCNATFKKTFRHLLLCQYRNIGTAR", "experiment": "Safety screen", "type": "binding", "method": "Blood cell counts, kinase profiler, safety screen, bacterial cytotoxicity, Ames, micronucleus assays were performed by the company Eurofins (France)."}}}
{"molecule": "COc1ccc(OC)c(NS(=O)(=O)c2ccc(NC(=O)CCSc3ccc(C)cc3)cc2)c1", "note": "[Compound A41]", "values": [{"measurement": "Activity(%)", "setting": "Abl(m)", "value": 125, "unit": "%"}, {"measurement": "Activity(%)", "setting": "p70S6K(h)", "value": 103, "unit": "%"}, {"measurement": "Activity(%)", "setting": "PKA(h)", "value": 84, "unit": "%"}, {"measurement": "Activity(%)", "setting": "PhKγ1(h)", "value": 102, "unit": "%"}, {"measurement": "% inh.", "setting": "PPARγ", "value": -7, "unit": "%"}, {"measurement": "Activity(%)", "setting": "Lyn(h)", "value": 109, "unit": "%"}, {"measurement": "C0", "setting": "[1]", "value": 4335, "unit": "ng/mL"}, {"measurement": "blood-brain barrier crossing", "setting": "[1]", "value": "could not cross the blood-brain barrier"}, {"measurement": "t ½", "setting": "[1]", "value": 1.6294, "unit": "h"}, {"measurement": "time over which plasma concentration declined", "setting": "[1]", "value": "2 to 3", "unit": "h"}, {"measurement": "tissue concentration, brain", "setting": "[1]", "value": "extremely low concentration"}, {"measurement": "tissue concentration, kidney", "setting": "[1]", "value": "highest concentration"}, {"measurement": "tissue distribution, liver, heart, and lungs", "setting": "[1]", "value": "detected"}, {"measurement": "AUC0-6h", "setting": "[1]; parameter list", "value": 14.3, "unit": "µg·h/mL"}, {"measurement": "AUC0-6h", "setting": "[1]; plasma", "value": "14.3 (µg/ mL)xh"}, {"measurement": "Cmax (peak plasma concentration)", "setting": "[1]; plasma", "value": "15056 ± 500", "unit": "ng/mL"}, {"measurement": "Activity(%)", "setting": "SAPK2a(T106M)(h)", "value": 98, "unit": "%"}, {"measurement": "Activity(%)", "setting": "DAPK1(h)", "value": 117, "unit": "%"}, {"measurement": "Activity(%)", "setting": "TGFBR1(h)", "value": 103, "unit": "%"}, {"measurement": "Activity(%)", "setting": "MAK(h)", "value": 117, "unit": "%"}, {"measurement": "Activity(%)", "setting": "IRAK4(h)", "value": 99, "unit": "%"}, {"measurement": "Activity(%)", "setting": "B-Raf(h)", "value": 90, "unit": "%"}, {"measurement": "Activity(%)", "setting": "ROCK-II(r)", "value": 110, "unit": "%"}, {"measurement": "Activity(%)", "setting": "CLK3(h)", "value": 110, "unit": "%"}, {"measurement": "Activity(%)", "setting": "Lyn(m)", "value": 110, "unit": "%"}, {"measurement": "% inh.", "setting": "Cyclooxygenase COX-2", "value": 11, "unit": "%"}, {"measurement": "% inh.", "setting": "Muscarinic M4", "value": -1, "unit": "%"}]}
